Experimental data: ChEMBL document CHEMBL5303573, “Mapping human microbiome drug metabolism by gut bacteria and their genes” (Nature, 2019)

How the values were obtained:
[1] = The drug is tested on Bifidobacterium breve strain: DSM20213 for biotransformation. The drug concentrations were measured before and after a 12-h incubation by liquid-chromatography-coupled mass spectrometry (LC–MS); conditions: 2 µM
[2] = The drug is tested on Collinsella aerofaciens strain: ATCC25986 for biotransformation. The drug concentrations were measured before and after a 12-h incubation by liquid-chromatography-coupled mass spectrometry (LC–MS); conditions: 2 µM
[3] = The drug is tested on Collinsella intestinalis strain: DSM13280 for biotransformation. The drug concentrations were measured before and after a 12-h incubation by liquid-chromatography-coupled mass spectrometry (LC–MS); conditions: 2 µM
[4] = The drug is tested on Alistipes indistinctus strain: DSM22520 for biotransformation. The drug concentrations were measured before and after a 12-h incubation by liquid-chromatography-coupled mass spectrometry (LC–MS); conditions: 2 µM
[5] = The drug is tested on Bacteroides caccae strain: ATCC43185 for biotransformation. The drug concentrations were measured before and after a 12-h incubation by liquid-chromatography-coupled mass spectrometry (LC–MS); conditions: 2 µM
[6] = The drug is tested on Bacteroides cellulosilyticus strain: DSM14838 for biotransformation. The drug concentrations were measured before and after a 12-h incubation by liquid-chromatography-coupled mass spectrometry (LC–MS); conditions: 2 µM
[7] = The drug is tested on Bacteroides finegoldii strain: DSM17565 for biotransformation. The drug concentrations were measured before and after a 12-h incubation by liquid-chromatography-coupled mass spectrometry (LC–MS); conditions: 2 µM
[8] = The drug is tested on Bacteroides fragilis strain: HMW610 for biotransformation. The drug concentrations were measured before and after a 12-h incubation by liquid-chromatography-coupled mass spectrometry (LC–MS); conditions: 2 µM
[9] = The drug is tested on Bacteroides fragilis strain: ATCC43859 for biotransformation. The drug concentrations were measured before and after a 12-h incubation by liquid-chromatography-coupled mass spectrometry (LC–MS); conditions: 2 µM
[10] = The drug is tested on Bacteroides ovatus strain: ATCC8483 for biotransformation. The drug concentrations were measured before and after a 12-h incubation by liquid-chromatography-coupled mass spectrometry (LC–MS); conditions: 2 µM
[11] = The drug is tested on Bacteroides pectinophilus strain: ATCC43243 for biotransformation. The drug concentrations were measured before and after a 12-h incubation by liquid-chromatography-coupled mass spectrometry (LC–MS); conditions: 2 µM
[12] = The drug is tested on Bacteroides sp. WH2 strain: WH2 for biotransformation. The drug concentrations were measured before and after a 12-h incubation by liquid-chromatography-coupled mass spectrometry (LC–MS); conditions: bacteroides sp. wh2, 12 h, 2 µM
[13] = The drug is tested on Bacteroides xylanisolvens strain: DSM18836 for biotransformation. The drug concentrations were measured before and after a 12-h incubation by liquid-chromatography-coupled mass spectrometry (LC–MS); conditions: 2 µM
[14] = The drug is tested on Parabacteroides merdae strain: ATCC43184 for biotransformation. The drug concentrations were measured before and after a 12-h incubation by liquid-chromatography-coupled mass spectrometry (LC–MS); conditions: 2 µM
[15] = The drug is tested on Anaerococcus hydrogenalis strain: DSM7454 for biotransformation. The drug concentrations were measured before and after a 12-h incubation by liquid-chromatography-coupled mass spectrometry (LC–MS); conditions: 2 µM
[16] = The drug is tested on Blautia luti strain: DSM14534 for biotransformation. The drug concentrations were measured before and after a 12-h incubation by liquid-chromatography-coupled mass spectrometry (LC–MS); type: ADME; set-up: dose 2 uM, timepoint 0 vs 12 hours; conditions: 2 µM
[17] = The drug is tested on Clostridium asparagiforme strain: DSM15981 for biotransformation. The drug concentrations were measured before and after a 12-h incubation by liquid-chromatography-coupled mass spectrometry (LC–MS); type: ADME; set-up: dose 2 uM, timepoint 0 vs 12 hours; conditions: enterocloster asparagiformis, 2 µM
[18] = The drug is tested on Clostridium scindens strain: ATCC35704 for biotransformation. The drug concentrations were measured before and after a 12-h incubation by liquid-chromatography-coupled mass spectrometry (LC–MS); conditions: 2 µM
[19] = The drug is tested on Clostridium sporogenes strain: ATCC15579 for biotransformation. The drug concentrations were measured before and after a 12-h incubation by liquid-chromatography-coupled mass spectrometry (LC–MS); conditions: 2 µM
[20] = The drug is tested on Clostridium symbiosum strain: ATCC14940 for biotransformation. The drug concentrations were measured before and after a 12-h incubation by liquid-chromatography-coupled mass spectrometry (LC–MS); conditions: 2 µM
[21] = The drug is tested on Dorea formicigenerans strain: ATCC27755 for biotransformation. The drug concentrations were measured before and after a 12-h incubation by liquid-chromatography-coupled mass spectrometry (LC–MS); conditions: 2 µM
[22] = The drug is tested on Enterococcus faecalis strain: V583 for biotransformation. The drug concentrations were measured before and after a 12-h incubation by liquid-chromatography-coupled mass spectrometry (LC–MS); conditions: 2 µM
[23] = The drug is tested on Eubacterium rectale strain: ATCC33656 for biotransformation. The drug concentrations were measured before and after a 12-h incubation by liquid-chromatography-coupled mass spectrometry (LC–MS); conditions: agathobacter rectalis, 2 µM
[24] = The drug is tested on Eubacterium ventriosum strain: ATCC27560 for biotransformation. The drug concentrations were measured before and after a 12-h incubation by liquid-chromatography-coupled mass spectrometry (LC–MS); type: ADME; set-up: dose 2 uM, timepoint 0 vs 12 hours; conditions: 2 µM
[25] = The drug is tested on Ruminococcus gnavus strain: ATCC29149 for biotransformation. The drug concentrations were measured before and after a 12-h incubation by liquid-chromatography-coupled mass spectrometry (LC–MS); conditions: mediterraneibacter gnavus, 2 µM
[26] = The drug is tested on Ruminococcus lactaris strain: ATCC29176 for biotransformation. The drug concentrations were measured before and after a 12-h incubation by liquid-chromatography-coupled mass spectrometry (LC–MS); conditions: 2 µM
[27] = The drug is tested on Ruminococcus torques strain: ATCC27756 for biotransformation. The drug concentrations were measured before and after a 12-h incubation by liquid-chromatography-coupled mass spectrometry (LC–MS); type: ADME; set-up: dose 2 uM, timepoint 0 vs 12 hours; conditions: 2 µM
[28] = The drug is tested on Subdoligranulum variabile strain: DSM15176 for biotransformation. The drug concentrations were measured before and after a 12-h incubation by liquid-chromatography-coupled mass spectrometry (LC–MS); conditions: 2 µM
[29] = The drug is tested on Edwardsiella tarda strain: ATCC23685 for biotransformation. The drug concentrations were measured before and after a 12-h incubation by liquid-chromatography-coupled mass spectrometry (LC–MS); conditions: 2 µM
[30] = The drug is tested on Escherichia coli strain: BW25113 for biotransformation. The drug concentrations were measured before and after a 12-h incubation by liquid-chromatography-coupled mass spectrometry (LC–MS); conditions: 2 µM
[31] = The drug is tested on Providencia rettgeri strain: DSM1131 for biotransformation. The drug concentrations were measured before and after a 12-h incubation by liquid-chromatography-coupled mass spectrometry (LC–MS); type: ADME; set-up: dose 2 uM, timepoint 0 vs 12 hours; conditions: 2 µM
[32] = bacteroides fragilis, 12 h, 2 µM
Description: The drug is tested on Bacteroides fragilis strain: NCTC 9343 for biotransformation. The drug concentrations were measured before and after a 12-h incubation by liquid-chromatography-coupled mass spectrometry (LC–MS)

[33] = bacteroides intestinalis, 12 h, 2 µM
Description: The drug is tested on Bacteroides intestinalis strain: DSM17393 for biotransformation. The drug concentrations were measured before and after a 12-h incubation by liquid-chromatography-coupled mass spectrometry (LC–MS)

[34] = bacteroides thetaiotaomicron, 12 h, 2 µM
Description: The drug is tested on Bacteroides thetaiotaomicron strain: VPI-5482 for biotransformation. The drug concentrations were measured before and after a 12-h incubation by liquid-chromatography-coupled mass spectrometry (LC–MS)

[35] = parabacteroides distasonis, 12 h, 2 µM
Description: The drug is tested on Parabacteroides distasonis strain: ATCC8503 for biotransformation. The drug concentrations were measured before and after a 12-h incubation by liquid-chromatography-coupled mass spectrometry (LC–MS)

[36] = parabacteroides johnsonii, 12 h, 2 µM
Description: The drug is tested on Parabacteroides johnsonii strain: DSM18315 for biotransformation. The drug concentrations were measured before and after a 12-h incubation by liquid-chromatography-coupled mass spectrometry (LC–MS)

[37] = segatella copri, 12 h, 2 µM
Description: The drug is tested on Prevotella copri strain: DSM18205 for biotransformation. The drug concentrations were measured before and after a 12-h incubation by liquid-chromatography-coupled mass spectrometry (LC–MS)

[38] = anaerostipes sp., 12 h, 2 µM
Description: The drug is tested on Anaerostipes sp. strain: fecal isolate for biotransformation. The drug concentrations were measured before and after a 12-h incubation by liquid-chromatography-coupled mass spectrometry (LC–MS)

[39] = enterocloster bolteae, 12 h, 2 µM
Description: The drug is tested on Clostridium bolteae strain: ATCCBAA-613 for biotransformation. The drug concentrations were measured before and after a 12-h incubation by liquid-chromatography-coupled mass spectrometry (LC–MS)

[40] = roseburia intestinalis, 12 h, 2 µM
Description: The drug is tested on Roseburia intestinalis strain: L1-82 for biotransformation. The drug concentrations were measured before and after a 12-h incubation by liquid-chromatography-coupled mass spectrometry (LC–MS)

Bacterial Biotransformation [1]: Compound NOT metabolized
Bacterial Biotransformation [2]: Compound NOT metabolized
Bacterial Biotransformation [3]: Compound NOT metabolized
Bacterial Biotransformation [4]: Compound NOT metabolized
Bacterial Biotransformation [5]: Compound NOT metabolized
Bacterial Biotransformation [6]: Compound NOT metabolized
Bacterial Biotransformation [7]: Compound NOT metabolized
Bacterial Biotransformation [8]: Compound NOT metabolized
Bacterial Biotransformation [9]: Compound NOT metabolized
Bacterial Biotransformation [10]: Compound NOT metabolized
Bacterial Biotransformation [11]: Compound NOT metabolized
Bacterial Biotransformation [12]: Compound NOT metabolized
Bacterial Biotransformation [13]: Compound NOT metabolized
Bacterial Biotransformation [14]: Compound NOT metabolized
Bacterial Biotransformation [15]: Compound NOT metabolized
Bacterial Biotransformation [16]: Compound NOT metabolized
Bacterial Biotransformation [17]: Compound NOT metabolized
Bacterial Biotransformation [18]: Compound NOT metabolized
Bacterial Biotransformation [19]: Compound metabolized
Bacterial Biotransformation [20]: Compound NOT metabolized
Bacterial Biotransformation [21]: Compound NOT metabolized
Bacterial Biotransformation [22]: Compound NOT metabolized
Bacterial Biotransformation [23]: Compound NOT metabolized
Bacterial Biotransformation [24]: Compound NOT metabolized
Bacterial Biotransformation [25]: Compound NOT metabolized
Bacterial Biotransformation [26]: Compound NOT metabolized
Bacterial Biotransformation [27]: Compound NOT metabolized
Bacterial Biotransformation [28]: Compound NOT metabolized
Bacterial Biotransformation [29]: Compound NOT metabolized
Bacterial Biotransformation [30]: Compound NOT metabolized
Bacterial Biotransformation [31]: Compound NOT metabolized
Bacterial Biotransformation [32]: Compound NOT metabolized
Bacterial Biotransformation [33]: Compound NOT metabolized
Bacterial Biotransformation [34]: Compound NOT metabolized
Bacterial Biotransformation [35]: Compound NOT metabolized
Bacterial Biotransformation [36]: Compound NOT metabolized
Bacterial Biotransformation [37]: Compound metabolized
Bacterial Biotransformation [38]: Compound NOT metabolized
Bacterial Biotransformation [39]: Compound NOT metabolized
Bacterial Biotransformation [40]: Compound NOT metabolized
SMILES: Cc1ccc(-c2cc(C(F)(F)F)nn2-c2ccc(S(N)(=O)=O)cc2)cc1 [CELECOXIB]
